These results are taken from US6013795A, “Alpha-branched fluoroalkylcarbonyl fluorides and their derivatives” (3M Innovative Properties Company, priority 1996, dated 2000).

Data set [1] in a line: thermal degradation in water and characterization of volatile products. In kind it is physicochemical.
Protocol: The thermal degradation of an aqueous α-branched perfluoroalkylcarbonyl fluoride and the characterization of the products produced from the degradation were carried out using the following procedure. […] 5.7 g of volatile degradation products were then collected by azeotropic distillation using a Dean-Stark apparatus.
The thermal degradation of C7 F15 CF(CF3)COF (from Example A4) dispersed in water was also carried out by heating the aqueous mixture for several hours at approximately 80° C.
The nature of data set [2]: surface tension of aqueous surfactant solutions and critical micelle concentration (K-12 Processor Tensiometer). In kind it is physicochemical. To be noted: deionized water.
Source text: Critical Micelle Concentration (CMC): The critical micelle concentration is defined as the concentration at which further surface tension is no longer lowered with increasing levels of surfactant. […] Surface tension is then plotted vs. log concentration and the data points are connected. The resulting curve has a nearly horizontal flat portion at concentrations above the CMC and has a negative steep slope at concentrations below the CMC. The CMC is defined as the lowest surfactant concentration in the horizontal flat portion of the curve.
(§1) Then the critical micelle concentration (CMC) was determined for each surfactant.
as §1

As for `O=C(F)C(F)(C(F)(F)F)C(F)(F)C(F)(F)C(F)(F)C(F)(F)C(F)(F)C(F)(F)C(F)(F)F` (stereo not drawn) [Example A1, C7 F15 CF(CF3)COF], the “monohydride C7 F15 CFHCF3 in degradation products” value in data set [1] (deionized water, refluxed 2 hours) was determined as 85%. In addition, in data set [1] (deionized water, refluxed 2 hours, cis/trans mixture), the “olefin C6 F13 CF=CFCF3 in degradation products” value came out at 15%. Besides, the “volatile degradation products collected” value in data set [1] (from 8 g, water, refluxed 2 hours) came out at 5.7 g. Also, the volatile products formed result in data set [1] (water, several hours at approximately 80° C.) is recorded as “The same volatile products were formed”.

Take `O=C(O)C(F)(C(F)(F)F)C(F)(F)C(F)(F)C(F)(F)C(F)(F)C(F)(F)C(F)(F)C(F)(F)F` (stereo not drawn) [Example M20, C7 F15 CF(CF3)COO^- H3 N^+ C2 H4 OH]: in data set [2] (carboxylate salts, Table 5), the CMC stood at 500 ppm and the “Surf. Tens. at the CMC” value turned out to be 15.0 dynes/cm.

For `O=C(NCCOC(=O)C(F)(C(F)(F)F)C(F)(F)C(F)(F)C(F)(F)C(F)(F)C(F)(F)C(F)(F)F)c1cc[n+]([O-])cc1` (stereo not drawn) [Example E11], in data set [2] (Table 3), the CMC is on record as 1000 ppm and the “Surf. Tens. at the CMC” value came out at 15.5 dynes/cm.

“C6 F13 CF(CF3)CON(C3 H6 SO3^-)(CH2)3 N^+ (CH3)2 H [Example K2]”: in data set [2] (Table 3), the CMC is 500 ppm and the “Surf. Tens. at the CMC” value came out at 20.3 dynes/cm.

As for `O=C(OCCc1cccc[n+]1[O-])C(F)(C(F)(F)F)C(F)(F)C(F)(F)C(F)(F)C(F)(F)C(F)(F)C(F)(F)C(F)(F)F` (stereo not drawn) [Example E13], in data set [2] (Table 3), the CMC worked out at 6000 ppm and the “Surf. Tens. at the CMC” value is on record as 15.0 dynes/cm.

In the case of `CN(C)CCCN(CCCN(C)C)C(=O)C(F)(C(F)(F)F)C(F)(F)C(F)(F)C(F)(F)C(F)(F)C(F)(F)C(F)(F)C(F)(F)F` (stereo not drawn) [Example F9, C7 F15 CF(CF3)CON[C3 H6 N^+ (CH3)2 H]2 2[^- OOCCH3]], in data set [2] (Table 3), the CMC amounted to 1000 ppm and the “Surf. Tens. at the CMC” value came out at 22.0 dynes/cm.

Turning to `C[N+](C)([O-])CCCNC(=O)C(F)(C(F)(F)F)C(F)(F)C(F)(F)C(F)(F)C(F)(F)C(F)(F)F` (stereo not drawn) [Example E2, C5 F11 CF(CF3)CONH(CH2)3 N^+ (CH3)2 O^-], in data set [2] (Table 3), the CMC is listed as 500 ppm and the “Surf. Tens. at the CMC” value is listed as 17.5 dynes/cm.

For “C8 F17 CF(CF3)CO(OCH2 CH2)16 OCH3 [Example J1]”, in data set [2] (Table 3), the CMC came out at 150 ppm and the “Surf. Tens. at the CMC” value is listed as 22 dynes/cm.

Turning to `O=C(NCCC[N+]1([O-])CCOCC1)C(F)(C(F)(F)F)C(F)(F)C(F)(F)C(F)(F)C(F)(F)C(F)(F)C(F)(F)C(F)(F)F` (stereo not drawn) [Example E9], the “solubility remark” value in data set [2] (Table 3) was “low solub”.

For `C[N+](C)(CCO)CCCNC(=O)C(F)(C(F)(F)F)C(F)(F)C(F)(F)C(F)(F)C(F)(F)C(F)(F)F` (stereo not drawn) [Example F3], in data set [2] (Table 3), the CMC is 1000 ppm and the “Surf. Tens. at the CMC” value was 17.0 dynes/cm.

For the molecule `O=C(O)C(F)(C(F)(F)F)C(F)(F)C(F)(F)C(F)(F)C(F)(F)C(F)(F)C(F)(F)C(F)(F)F` (stereo not drawn) [Example M1, C7 F15 CF(CF3)COOH], the “degradation products in aqueous solution” value in data set [1] (aqueous solution, similar way) is “the same monohydride and olefin”.

Regarding `O=C(NCCC[N+]1(CCO)CCOCC1)C(F)(C(F)(F)F)C(F)(F)C(F)(F)C(F)(F)C(F)(F)C(F)(F)C(F)(F)C(F)(F)F` (stereo not drawn) [Example F5], in data set [2] (Table 3), the CMC came to 1000 ppm and the “Surf. Tens. at the CMC” value is 20.8 dynes/cm.
